Data on 24 compounds can be found in patent US8362000B2, “Azetidinyl diamides as monoacylglycerol lipase inhibitors” (Janssen Pharmaceutica NV, priority 2009, dated 2013).

Changes are numbered by the printed parent chain. Like-named read-outs stand apart in the source and are kept apart here.

One assay has as its target T1, mutant MGL (Homo sapiens, UniProt Q99685, L169S/L176S).
T1 sequence (Q99685 1-303 L169S/L176S): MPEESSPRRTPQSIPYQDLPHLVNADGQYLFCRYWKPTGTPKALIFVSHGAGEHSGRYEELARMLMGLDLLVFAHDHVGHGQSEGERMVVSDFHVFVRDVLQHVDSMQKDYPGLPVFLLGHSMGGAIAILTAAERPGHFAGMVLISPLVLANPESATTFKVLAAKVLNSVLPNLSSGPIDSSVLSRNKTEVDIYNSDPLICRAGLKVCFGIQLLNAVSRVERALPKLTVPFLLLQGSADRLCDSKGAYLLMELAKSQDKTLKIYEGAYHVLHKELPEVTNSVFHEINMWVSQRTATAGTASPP
As to the kind of experiment: MGL ThermoFluor assay - mutant. In kind it is binding. A general note: DSF heats the sample and reads unfolding from a dye or from intrinsic fluorescence.

Assay [1] has as its target T2, purified wild type MGL (wt-MGLL 6H-11-313) (Homo sapiens, UniProt Q99685).
T2 sequence (Q99685 1-303): T1 sequence (Q99685 1-303 L169S/L176S) with S169L, S176L

The target of the next assay is T3, MGL (Rattus norvegicus, UniProt Q8R431).
T3 construct: one g rat brain was homogenized using a Polytron homogenizer; from tissue; host or cells: rat brain homogenate
T3 sequence (Q8R431 1-303): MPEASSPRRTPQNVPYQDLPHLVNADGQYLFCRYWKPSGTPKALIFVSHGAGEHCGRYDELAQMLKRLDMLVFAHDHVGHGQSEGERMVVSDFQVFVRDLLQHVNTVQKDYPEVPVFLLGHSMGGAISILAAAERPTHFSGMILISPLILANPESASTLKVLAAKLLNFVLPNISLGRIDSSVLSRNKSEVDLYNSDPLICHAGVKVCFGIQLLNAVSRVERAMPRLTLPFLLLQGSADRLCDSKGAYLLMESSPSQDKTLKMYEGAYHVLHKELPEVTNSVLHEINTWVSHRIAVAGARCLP
As to the kind of experiment: 2-AG accumulation assay in rat brain homogenate. The format is biochemical. The conditions noted are these: rat brain homogenate, 2-AG accumulation as percent of vehicle; for 2-AG accumulation, % of vehicle control at 1 µM: compound 1 μM, read-out: Rat Brain 2AG % VehCntrl (%) @ 1 μM; for 2-AG accumulation, % of vehicle control at 10 µM: compound 10 μM, read-out: Rat Brain 2AG % VehCntrl (%) @ 10 μM.

Where [2] appears, read: ThermoFluor concentration-response, read-out: MGL mutant ThermoFluor Kd.
[3] abbreviates: ThermoFluor, compound concentration measured by qNMR, read-out: MGL mutant ThermoFluor qKd (μM) (using qNMR conc.).
The mark [4] stands for this setting: compound concentration measured by qNMR, read-out: MGL mutant ThermoFluor qKd (using qNMR conc.).
Setting [5] is: ThermoFluor, compound concentration measured by qNMR, read-out: MGL mutant ThermoFluor qKd (using qNMR conc.).
Setting [6] is: ThermoFluor thermal stability binding assay, read-out: MGL mutant ThermoFluor Kd.

Broadly, the IC50 is the concentration at which inhibition is half-maximal. High values mean a need for much substance, low ones inhibition by little substance.

On to `CCCc1ccc(C(=O)N2CC(N3CCN(C(=O)c4nccs4)CC3)C2)cc1` [Cpd 655], for which, at mutant MGL (setting [2]), the Kd is 0.029 µM. The IC50 in assay [1] is 8 nM. Also, at MGL, the 2-AG accumulation, % of vehicle control at 1 µM amounted to 359%.

Consider `O=C(c1cnc2c(ccn2-c2ccc(F)cc2)c1)N1CC(N2CCN(C(=O)c3nccs3)CC2)C1` [Cpd 1056], for which the Kd on mutant MGL (setting [3]) came to 0.012 µM. Further, the IC50 in assay [1] is 6 nM. Moreover, the 2-AG accumulation, % of vehicle control at 1 µM on MGL amounted to 498%.

Take `O=C(c1ccc[nH]1)N1CCN(C2CN(C(=O)c3nn(-c4ccc(Cl)cc4Cl)c4c3CCC/C4=C\c3ccc(Cl)cc3)C2)CC1` [Cpd 1019]: the Kd on mutant MGL (setting [2]) was determined as 0.166 µM; at mutant MGL (setting [4]), 0.132 µM. Further, the IC50 in assay [1] is 6 nM. The 2-AG accumulation, % of vehicle control at 1 µM at MGL amounted to 287%.

On to `Cc1cn(-c2ccccc2)c2ccc(C(=O)N3CC(N4CCN(C(=O)c5ccccc5)CC4)C3)cc12` [Cpd 577], for which the Kd at mutant MGL (setting [3]) is 0.026 µM. Also, the half-inhibitory concentration (IC50) in assay [1] was 52 nM. The 2-AG accumulation, % of vehicle control at 1 µM at MGL worked out at 207%.

On to `O=C(c1nccs1)N1CCN(C2CN(C(=O)c3[nH]c4nc(C(F)(F)F)ccc4c3Br)C2)CC1` [Cpd 675], for which the Kd on mutant MGL (setting [5]) turned out to be 0.025 µM. The compound further displayed an IC50 in assay [1] of 19 nM. Also, the 2-AG accumulation, % of vehicle control at 1 µM on MGL was found to be 330%.

With `O=C(c1nccs1)N1CCN(C2CN(C(=O)c3cc(-c4ccccc4)ccc3F)C2)CC1` [Cpd 1208], at mutant MGL (setting [2]), the Kd came to 1 µM. Besides, half-maximal inhibition in assay [1] (IC50) was put at 190 nM. For the same compound, the 2-AG accumulation, % of vehicle control at 1 µM on MGL was 212%.

Consider `O=C(c1cc(-c2ccccc2)cc(C(F)(F)F)c1)N1CC(N2CCN(C(=O)c3nccs3)CC2)C1` [Cpd 1144, 1-(1,3-Thiazol-2-ylcarbonyl)-4-(1-{[5-(trifluoromethyl)biphenyl-3-yl]carbonyl}azetidin-3-yl)piperazine], for which, on mutant MGL (setting [2]), the Kd turned out to be 0.181 µM. This compound gave an IC50 in assay [1] of 31 nM. Also, at MGL, the 2-AG accumulation, % of vehicle control at 1 µM worked out at 212%.

Regarding `O=C(c1cccc(-c2cccc(C(F)(F)F)c2)c1)N1CC(N2CCN(C(=O)c3nccs3)CC2)C1` [Cpd 1093], the Kd on mutant MGL (setting [2]) was found to be 0.24 µM. This compound came in with an IC50 in assay [1] of 11 nM. Moreover, the 2-AG accumulation, % of vehicle control at 1 µM on MGL turned out to be 472%.

Regarding `Cc1ccc(-n2ccc3cc(C(=O)N4CC(N5CCN(C(=O)c6nccs6)CC5)C4)ccc32)cn1` [Cpd 1105, 1-(6-Methylpyridin-3-yl)-5-({3-[4-(1,3-thiazol-2-ylcarbonyl)piperazin-1-yl]azetidin-1-yl}carbonyl)-1H-indole], at mutant MGL (setting [5]), the Kd was 0.023 µM. This compound also showed a 50% inhibitory concentration (IC50) in assay [1] of 13 nM. Further, the 2-AG accumulation, % of vehicle control at 1 µM on MGL was 734%.

In the case of `O=C(c1cscn1)N1CCN(C2CN(C(=O)c3sc4cc(-c5ccccc5)ccc4c3C(F)(F)F)C2)CC1` [Cpd 1098, 1-(1-{[6-Phenyl-3-(trifluoromethyl)-1-benzothiophen-2-yl]carbonyl}azetidin-3-yl)-4-(1,3-thiazol-4-ylcarbonyl)piperazine], the Kd at mutant MGL (setting [2]) was 0.031 µM. In assay [1], this compound had an IC50 of 12 nM. Moreover, the 2-AG accumulation, % of vehicle control at 1 µM at MGL amounted to 296%.

For the compound `O=C(c1ccc(F)c(Cc2ccc(C(F)(F)F)cc2)c1)N1CC(N2CCN(C(=O)c3nccs3)CC2)C1` [Cpd 1007, 1-[1-({4-Fluoro-3-[4-(trifluoromethyl)benzyl]phenyl}carbonyl)azetidin-3-yl]-4-(1,3-thiazol-2-ylcarbonyl)piperazine], the Kd at mutant MGL (setting [2]) is 0.259 µM. In assay [1], the midpoint of inhibition, the IC50, lay at 27 nM. At MGL, the 2-AG accumulation, % of vehicle control at 1 µM turned out to be 180%.

Consider `O=C(c1ccccc1)N1CCN(C2CN(C(=O)c3cc4cccc(C(F)(F)F)c4s3)C2)CC1` [Cpd 329, 1-(Phenylcarbonyl)-4-(1-{[7-(trifluoromethyl)-1-benzothiophen-2-yl]carbonyl}azetidin-3-yl)piperazine], for which the Kd at mutant MGL (setting [6]) turned out to be 0.0626 µM. The compound also had an IC50 in assay [1] of 1220 nM. The 2-AG accumulation, % of vehicle control at 10 µM on MGL stood at 520%.

In the case of `O=C(c1ccc(-c2ccc(C(F)(F)F)s2)cc1)N1CC(N2CCN(C(=O)c3ccc[nH]3)CC2)C1` [Cpd 1138], on mutant MGL (setting [2]), the Kd was determined as 0.018 µM. In addition, the IC50 in assay [1] amounted to 26 nM. Further, the 2-AG accumulation, % of vehicle control at 1 µM at MGL was found to be 271%.

`O=C(c1ccc2c(c1)CCN2Cc1ccc(C(F)(F)F)cc1)N1CC(N2CCN(C(=O)c3nccs3)CC2)C1` [Cpd 882]: the Kd on mutant MGL (setting [2]) worked out at 0.012 µM. Besides, the IC50 in assay [1] was < 5 nM. Moreover, at MGL, the 2-AG accumulation, % of vehicle control at 1 µM is 697%.

With `Cc1c(C(=O)N2CC(N3CCN(C(=O)c4nccs4)CC3)C2)cccc1-c1ccccc1` [Cpd 1234], the Kd on mutant MGL (setting [2]) came out at 0.394 µM. The compound further returned an IC50 in assay [1] of 356 nM. For the same compound, on MGL, the 2-AG accumulation, % of vehicle control at 1 µM stood at 226%.

With `O=C(c1nccs1)N1CCN(C2CN(C(=O)c3cccc4oc(-c5ccccc5)nc34)C2)CC1` [Cpd 1190], at mutant MGL (setting [6]), the Kd was 0.008 µM. In addition, the midpoint of inhibition in assay [1], the IC50, lay at 99 nM. Moreover, the 2-AG accumulation, % of vehicle control at 1 µM at MGL is 126%.

As for `C/C(=C\c1ccc(Cl)cc1)c1c(C)c(C(=O)N2CC(N3CCN(C(=O)C(F)(F)F)CC3)C2)nn1-c1ccc(Cl)cc1Cl` [Cpd 1012], at mutant MGL (setting [4]), the Kd is 3.34 µM. The compound further yielded an IC50 in assay [1] of 13 nM. The 2-AG accumulation, % of vehicle control at 1 µM at MGL stood at 173%.

Regarding `CCCCCCCc1ccc(C(=O)N2CC(N3CCN(C(=O)c4nccs4)CC3)C2)cc1` [Cpd 892], the Kd on mutant MGL (setting [2]) was 0.007 µM. The IC50 in assay [1] was < 5 nM. Further, the 2-AG accumulation, % of vehicle control at 1 µM at MGL turned out to be 948%.

On to `O=C(c1ccc2c(c1)CCN2c1ccc(F)cc1)N1CC(N2CCN(C(=O)c3nccs3)CC2)C1` [Cpd 885, 1-(4-Fluorophenyl)-5-({3-[4-(1,3-thiazol-2-ylcarbonyl)piperazin-1-yl]azetidin-1-yl}carbonyl)-2,3-dihydro-1H-indole], for which the Kd at mutant MGL (setting [4]) was 0.001 µM. Besides, the IC50 in assay [1] was < 5 nM. The 2-AG accumulation, % of vehicle control at 1 µM at MGL is 722%.

Turning to `O=C(c1ccc(-c2cccc(C(F)(F)F)c2)cc1)N1CCN(C2CN(C(=O)c3ccc[nH]3)C2)CC1` [Cpd 1166, 1-[1-(1H-Pyrrol-2-ylcarbonyl)azetidin-3-yl]-4-{[3′-(trifluoromethyl)biphenyl-4-yl]carbonyl}piperazine], the Kd on mutant MGL (setting [2]) worked out at 0.01 µM. The compound also displayed an IC50 in assay [1] of 52 nM. For the same compound, the 2-AG accumulation, % of vehicle control at 1 µM at MGL is 176%.

Turning to `C/C(=C\c1ccc(Cl)cc1)c1c(C)c(C(=O)N2CC(N3CCN(C(=O)c4ccc[nH]4)CC3)C2)nn1-c1ccc(Cl)cc1Cl` [Cpd 1011], on mutant MGL (setting [2]), the Kd was 0.124 µM. Besides, the IC50 in assay [1] is < 5 nM. In addition, at MGL, the 2-AG accumulation, % of vehicle control at 1 µM was 994%.

For the compound `O=C(c1ccc2c(ccn2-c2ccc(C(F)(F)F)cc2)c1)N1CC(N2CCN(C(=O)c3ccc[nH]3)CC2)C1` [Cpd 1339, 5-({3-[4-(1H-Pyrrol-2-ylcarbonyl)piperazin-1-yl]azetidin-1-yl}carbonyl)-1-[4-(trifluoromethyl)phenyl]-1H-indole], the Kd at mutant MGL (setting [2]) was found to be 0.013 µM. Further, the IC50 in assay [1] was < 5 nM. The 2-AG accumulation, % of vehicle control at 1 µM at MGL came to 574%.

As for `O=C(c1cscn1)N1CCN(C2CN(C(=O)c3cccc4nc(-c5ccc(F)cc5)oc34)C2)CC1` [Cpd 1282], on mutant MGL (setting [6]), the Kd was determined as 0.2 µM. The IC50 in assay [1] was determined as 2070 nM. At MGL, the 2-AG accumulation, % of vehicle control at 1 µM amounted to 128%.

On to `CC1CN(C2CN(C(=O)c3ccc(Cc4ccccc4)cc3)C2)CCN1C(=O)c1nccs1` (stereo not shown) [Cpd 115], for which the Kd at mutant MGL (setting [2]) worked out at 0.037 µM. The same compound registered an IC50 in assay [1] of 11.7 nM. The 2-AG accumulation, % of vehicle control at 10 µM at MGL is 579%.
